These results are taken from article PMC10856354 (International Journal of Molecular Sciences, 2024).

The target of one data set is T1, hSST3R (Homo sapiens, UniProt P32745).
T1 construct: expressed in transfected cells; host or cells: CCL39 cells, gift of Dr. D. Hoyer (Novartis Pharma)
Nature of the data set: Receptor autoradiography competition binding vs [125I]I-[LTT]SS28. As for the experimental part:
(§1) Cell membrane pellets were prepared from CHO-hSST1R cells, CCL39-hSST2R, CCL39-hSST3R, and CCL39-hSST4R cells, and HEK293-hSST2R cells and stored at −80 °C. Receptor autoradiography was performed on 20-μm-thick cryostat (Microm HM 500, Walldorf, Germany) sections of the membrane pellets mounted on microscope slides, and then stored at −20 °C, as previously described. […] The incubated sections were washed twice for 5 min in cold 170 mmol/L Tris-HCl (pH 8.2) containing 0.25% BSA. After a brief dip in 170 mmol/L Tris-HCl (pH 8.2), the sections were dried quickly and exposed for 1 week to Kodak BioMax MR film (Rochester, NY, USA). IC50 values were calculated after quantification of the data using a computer-assisted image processing system as described previously. Tissue standards (Autoradiographic [^125I] and/or [^14C] microscales, GE Healthcare; Little Chalfont, UK) that contain known amounts of isotope, cross-calibrated to tissue-equivalent ligand concentrations, were used for quantification.

Data set [1] has as its target T2, hSST2R (Homo sapiens, UniProt P30874).
T2 construct: expressed in transfected cells
The data set is described as above. As for the experimental part: as §1

The next data set deals with T3, hSST1R (Homo sapiens, UniProt P30872).
T3 construct: expressed in transfected cells; host or cells: CHO cells, gift of Drs; T. Reisine and G. Singh
T3 sequence (P30872 whole entry): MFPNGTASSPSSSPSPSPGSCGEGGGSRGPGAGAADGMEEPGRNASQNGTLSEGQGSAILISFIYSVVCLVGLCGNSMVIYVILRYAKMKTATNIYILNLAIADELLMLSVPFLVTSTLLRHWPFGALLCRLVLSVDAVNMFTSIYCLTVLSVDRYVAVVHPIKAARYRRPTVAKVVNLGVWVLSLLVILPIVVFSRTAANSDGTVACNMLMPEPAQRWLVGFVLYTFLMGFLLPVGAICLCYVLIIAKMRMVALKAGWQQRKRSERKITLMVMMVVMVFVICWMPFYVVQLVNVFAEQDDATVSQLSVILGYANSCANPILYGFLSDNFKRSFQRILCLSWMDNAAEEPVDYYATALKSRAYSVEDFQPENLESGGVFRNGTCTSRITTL
The description is as above. As for the experimental part: as §1

Data set [2] deals with T2, hSST2R. Nature of the data set: Immunofluorescence microscopy-based internalization assay in HEK293-hSST2R cells. Format: cell-based. The conditions noted are these: for ligand-induced hSST2R internalization (agonism): 30 min at 37 °C. As for the experimental part:
Figure 3 Agonist stimulated hSST2R-internalization in HEK293-hSST2R cells determined by immunofluorescence microscopy.
An immunofluorescence microscopy-based internalization assay for hSST2R was performed in HEK293-hSST2R cells, grown on poly-DLys (20 μg/mL) (Sigma-Aldrich, St. Louis, MO, USA) coated 35-mm four-well plates (Cellstar, Greiner Bio-One GmbH, Frickenhausen, Germany). […] HEK293-hSST2R cells treated with vehicle alone were used as a negative control. The cells were then rinsed twice with PS (100 mM phosphate buffer containing 0.15 M sucrose), fixed and permeabilized for 7 min with cold methanol (−20 °C), rinsed twice with PS, and then blocked for 60 min at room temperature with PS containing 0.1% BSA. Next, cells were incubated for 60 min at room temperature with the hSST2R-specific primary antibody R2-88 (provided by Dr. A. Schönbrunn, Houston, TX, USA) diluted 1:1000 in PS and washed 3 × 5 min with PS containing 0.1% BSA. The cells were incubated for 60 min at room temperature in the dark with the secondary antibody Alexa Fluor 488 goat anti-rabbit IgG (H+ L) (Molecular Probes, Inc., Eugene, OR, USA) diluted in PS (1:600), washed 3 × 5 min with PS containing 0.1% BSA, embedded with PS/glycerol 1:1, and covered with a glass cover slip. The cells were imaged using a Leica DM RB immunofluorescence microscope (Leica, Deerfield, IL, USA) and an Olympus DP10 camera (Olympus Corporation, Shinjuku, Tokyo, Japan).

For another data set, the target named is T4, hSST5R (Homo sapiens, UniProt P35346).
T4 construct: expressed in transfected cells
T4 sequence (P35346 whole entry): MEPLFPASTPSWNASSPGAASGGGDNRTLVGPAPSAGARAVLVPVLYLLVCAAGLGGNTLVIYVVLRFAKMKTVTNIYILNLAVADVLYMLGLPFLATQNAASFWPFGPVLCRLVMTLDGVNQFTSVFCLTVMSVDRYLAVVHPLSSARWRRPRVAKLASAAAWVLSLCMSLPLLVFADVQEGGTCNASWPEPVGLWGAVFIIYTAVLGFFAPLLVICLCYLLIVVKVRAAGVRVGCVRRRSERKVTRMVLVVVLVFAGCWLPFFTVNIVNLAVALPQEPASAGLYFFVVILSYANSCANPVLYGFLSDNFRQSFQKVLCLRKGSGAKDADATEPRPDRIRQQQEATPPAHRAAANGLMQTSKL
Nature of the data set: Receptor autoradiography competition binding vs [125I]I-[LTT]SS28.

The conditions of data set [3]: mice, blood collected 5 min pi, radio-HPLC. The method, then:
At 5 min pi blood (~1mL) was collected from the heart of mice in a prechilled insulin syringe and swiftly placed in an ice-cold polypropylene tube containing EDTA on ice. Blood samples were centrifuged at 2000× g at 4 °C for 10 min. […] The mixture was centrifuged for 10 min at 15,000× g at 4 °C. […] An RP18 Symmetry Shield cartridge column (5 μm, 3.9 mm × 20 mm, Waters, Vienna, Austria) was eluted at a 1 mL/min flow rate with the following gradient: 100%A/0%B to 60%A/40%B in 40 min, whereby A = 0.1% aqueous TFA and B = MeCN (system 3).

Where a SMILES comes first, the peptide text is derived from it. Bridges are numbered along the chain shown (N, C = ends). [ ]: non-standard residue; d: D form. The star is where a group is joined. DOTA = O=C(O)CN1CCN(CC(=O)O)CCN(CC(=O)*)CCN(CC(=O)O)CC1 A value given as a limit tells only on which side of the number the result lay.

T1 sequence (P32745 whole entry): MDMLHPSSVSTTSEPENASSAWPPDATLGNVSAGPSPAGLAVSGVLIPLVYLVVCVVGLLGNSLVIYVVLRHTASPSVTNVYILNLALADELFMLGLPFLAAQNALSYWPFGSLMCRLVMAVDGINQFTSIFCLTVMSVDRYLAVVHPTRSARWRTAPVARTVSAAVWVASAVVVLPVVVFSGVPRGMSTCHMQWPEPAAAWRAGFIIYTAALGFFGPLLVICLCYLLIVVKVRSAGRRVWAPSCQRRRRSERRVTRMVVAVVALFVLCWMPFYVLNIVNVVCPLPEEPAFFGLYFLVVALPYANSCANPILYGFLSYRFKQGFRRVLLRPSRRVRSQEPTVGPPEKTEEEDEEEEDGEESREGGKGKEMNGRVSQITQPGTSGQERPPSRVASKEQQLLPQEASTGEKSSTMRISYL
T2 sequence (P30874 whole entry): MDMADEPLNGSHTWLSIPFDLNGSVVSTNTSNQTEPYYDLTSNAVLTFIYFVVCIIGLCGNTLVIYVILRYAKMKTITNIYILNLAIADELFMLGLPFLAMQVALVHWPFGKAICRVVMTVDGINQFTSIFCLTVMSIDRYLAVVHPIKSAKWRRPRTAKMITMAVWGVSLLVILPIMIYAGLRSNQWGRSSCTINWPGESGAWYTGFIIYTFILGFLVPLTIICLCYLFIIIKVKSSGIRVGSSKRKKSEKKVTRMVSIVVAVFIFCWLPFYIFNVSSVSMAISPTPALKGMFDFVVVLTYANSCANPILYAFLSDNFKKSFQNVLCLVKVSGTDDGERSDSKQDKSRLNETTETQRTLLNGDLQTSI

As a reminder, the IC50 is the midpoint of a concentration-inhibition curve. Read a low IC50 as inhibition by little substance. As for `C[C@H](NC(=O)CN1CCN(CC(=O)O)CCN(CC(=O)O)CCN(CC(=O)O)CC1)C(=O)NCC(=O)N[C@H]1CSSC[C@@H](C(=O)O)NC(=O)[C@H](CO)NC(=O)[C@H]([C@@H](C)O)NC(=O)[C@@H]2CSSC[C@H](NC(=O)[C@H](CC(N)=O)NC(=O)[C@H](CCCCN)NC1=O)C(=O)N[C@@H](Cc1ccccc1)C(=O)N[C@H](Cc1c[nH]c3ccccc13)C(=O)N[C@@H](CCCCN)C(=O)N[C@@H]([C@@H](C)O)C(=O)N2` [AT5S, DOTA-Ala^1-Gly^2-c[Cys^3-Lys^4-Asn^5-c[Cys^6-Phe^7-DTrp^8-Lys^9-Thr^10-Cys^11]-Thr^12-Ser^13-Cys^14]] ({DOTA}-AGCKNCF[dW]KTCTSC-OH; disulfide 3-14, 6-11), the IC50 at hSST3R was > 1 µM; on hSST2R [1], 0.616 ± 0.148 µM; at hSST1R, > 1 µM; at hSST5R, > 1 µM. In addition, the “ligand-induced hSST2R internalization (agonism)” value on hSST2R [2] (1 µM) and at hSST2R [2] (10 µM) was “failed to trigger the hSST2R internalization” each time. For the same molecule, the “prevention of SS14-induced hSST2R internalization (antagonism)” value at hSST2R [2] (10 µM test peptide + 10 nM SS14, 30 min at 37 °C) is recorded as “failed to prevent the hSST2R internalization”.
Consider `C[C@H](NC(=O)CN1CCN(CC(=O)O)CCN(CC(=O)O)CCN(CC(=O)O)CC1)C(=O)NCC(=O)N[C@H]1CSSC[C@@H](C(=O)O)NC(=O)[C@H](CO)NC(=O)[C@@H]2CSSC[C@H](NC(=O)[C@H](CCCCN)NC1=O)C(=O)N[C@@H](Cc1ccccc1)C(=O)N[C@@H](Cc1ccccc1)C(=O)N[C@H](Cc1c[nH]c3ccccc13)C(=O)N[C@@H](CCCCN)C(=O)N[C@@H]([C@@H](C)O)C(=O)N[C@@H](Cc1ccccc1)C(=O)N2` [AT6S, DOTA-Ala^1-Gly^2-c[Cys^3-Lys^4-c[Cys^5-Phe^6-Phe^7-DTrp^8-Lys^9-Thr^10-Phe^11-Cys^12]-Ser^13-Cys^14]] ({DOTA}-AGCKCFF[dW]KTFCSC-OH; disulfide 3-14, 5-12), for which the IC50 at hSST3R turned out to be 0.0097 ± 0.0036 µM; on hSST2R [1], 0.0063 ± 0.0006 µM; on hSST1R it was 0.012 ± 0.0033 µM; on hSST5R, 0.026 ± 0.007 µM. Further, the “lower affinity for hSST3R compared with AT2S” value on hSST3R (vs AT2S) was “≈ 4 fold”. Moreover, at hSST3R (vs SS14), the “drop in binding affinity for hSST3R compared with native hormone” value is “≈ 3 fold”. Moreover, at hSST2R [1] (vs AT2S), the “lower affinity for hSST2R compared with AT2S” value is listed as < 4 fold. In addition, the “drop in binding affinity for hSST2R compared with native hormone” value at hSST2R [1] (vs SS14) worked out at 9 fold. Besides, the “drop in binding affinity for hSST1R compared with native hormone” value at hSST1R (vs SS14) was < 6 fold. The “ligand-induced hSST2R internalization (agonism)” value on hSST2R [2] (1 µM) was “behaved as a potent agonist”. In addition, the “lower affinity for hSST5R compared with AT2S” value at hSST5R (vs AT2S) is < 2 fold. Besides, the “drop in binding affinity for hSST5R compared with native hormone” value at hSST5R (vs SS14) is recorded as < 6 fold.
Turning to `C[C@H](NC(=O)CN1CCN(CC(=O)O)CCN(CC(=O)O)CCN(CC(=O)O)CC1)C(=O)NCC(=O)N[C@H]1CSSC[C@@H](C(=O)O)NC(=O)[C@H](CO)NC(=O)[C@H]([C@@H](C)O)NC(=O)[C@@H]2CSSC[C@H](NC(=O)[C@H](CC(N)=O)NC(=O)[C@H](CCCCN)NC1=O)C(=O)N[C@@H](Cc1ccccc1)C(=O)N[C@H](Cc1c[nH]c3ccccc13)C(=O)N[C@@H](CCCCN)C(=O)N[C@@H]([C@@H](C)O)C(=O)N2` [[^111In]In-AT5S, metal not drawn] ({DOTA}-AGCKNCF[dW]KTCTSC-OH; disulfide 3-14, 6-11), the “% intact radioligand in peripheral blood” value in data set [3] is listed as > 96%.
Consider “DOTA-Ala^1-Gly^2-c[Cys^3-Lys^4-Asn^5-Phe^6-Phe^7-Trp^8-Lys^9-Thr^10-Phe^11-Thr^12-Ser^13-Cys^14-OH] [AT1S, reference compound]”, for which the “ligand-induced hSST2R internalization (agonism)” value at hSST2R [2] (1 µM) was “clearly able to trigger the internalization of hSST2R”.
